Measured values from US20210395327A1, “Growth Hormone-Releasing Hormone Antagonists and Uses Thereof” (United States Government As Represented By The Department …, priority 2019, published 2021).
Like-named read-outs stand apart in the source and are kept apart here. Non-standard residues stand in square brackets, D forms with d. Residues, ends and D or L forms follow the SMILES beside them. *: point of attachment. Phe(F5) = N[C@@H](Cc1c(F)c(F)c(F)c(F)c1F)C(=O)O; Phe(4-Cl) = N[C@@H](Cc1ccc(Cl)cc1)C(=O)O; hArg = N=C(N)NCCCC[C@H](N)C(=O)O; 12Ado = NCCCCCCCCCCCC(=O)O; Nle = CCCC[C@H](N)C(=O)O; Orn = NCCC[C@H](N)C(=O)O; Abu = CC[C@H](N)C(=O)O; PhAc = O=C(Cc1ccccc1)*

Tests used:
[1] = test system: CFPAC-1 pancreatic cancer cells; assay: In vitro cell viability, CFPAC-1; assay type: cell-based, human; conditions: antagonist 5 μM for 72 h, cell proliferation assay; MIA602 = 1
Method: (§1) The inhibitory effects of the various synthesized GHRH antagonists were tested in cell proliferation assays in various human cancer cell lines including stomach cancer (KATOIII, N87), colon cancer (HT-29), urothelial cancer (J82, RT4), pancreatic cancer (PANC-1, CFPAC-1), prostatic cancer (PC3), breast cancer (MX-1, HCC1806), ovarian cancer (SK-OV-3, OVCAR-3) and lung cancer (HCC827, H460).
(§2) Cell culture. Human cancer cell lines including pancreatic (PANC-1 and CFPAC-1), lung (HCC827 and H460), stomach (NCI-N87 and KATOIII), urothelial (J82, RT4), prostatic (PC3), breast (MX-1 and HCC 1806), colorectal (HT-29), and ovarian (SK-OV-3 and OVCAR-3) were obtained from the American Type Culture Collection (ATCC) and cultured at 37° C. in a humidified 95% air/5% CO2 atmosphere in the medium recommended by ATCC.
(§3) In vitro cell viability. Cell viability was analyzed as follows: cancer cells including pancreatic (PANC-1 and CFPAC-1), lung (HCC827 and H460), stomach (NCI-N87 and KATOIII), urothelial (J82, RT4), prostatic (PC3) and breast (MX-1 and HCC 1806), colorectal (HT-29) and ovarian (SK-OV-3 and OVCAR-3) were grown on 96 well plates to ˜60% confluence, the cells were starved for 24 h in culture medium containing 0.5% FBS. Cells were then treated with GHRH antagonists MIA602 AVR compounds at concentrations of 1, 2.5 or 5 μM, or vehicle (0.1% DMSO) in quintuplicates for 72 hours. The medium was replaced every 48 hours. Cell viability was measured using CellTiter 96 aqueous one solution kit (Promega). Inhibitory effects of tested AVR compounds in comparison to that of MIA602 are presented as inhibitory potency.
(§4) Inhibitory effects of selected AVR compounds in comparison to that of MIA602 are presented as inhibitory potency (e.g., percentage of inhibition). […] The cell lines tested including lung cancer HCC827 (FIG. 2A), pancreatic cancer CFPAC-1 (FIG. 2B), stomach cancer N87 (FIG. 2C), colon cancer HT-29 (FIG. 2D), breast cancers MX-1 and HCC1806 (FIGS. 2 E, F). Based on the results of cell proliferation assay after cancer cells were treated with antagonist at concentration of 5 μM for 72H, the relative inhibitory potency of AVR antagonists in comparison to MIA-602 is summarized in Table 3 A and B. Over 60 AVR compounds were tested in 12 cancer cell lines.
(§5) Based on the results of cell proliferation assay after cancer cells were treated with antagonist at concentration of 5 µM for 72H, * at concentration of 2 µM for 72 H.

[2] = test system: HCC1806 breast cancer cells; assay: In vitro cell viability, HCC1806; assay type: cell-based, human; conditions: antagonist 5 μM for 72 h, cell proliferation assay; MIA602 = 1
Method: as §1, §2, §3, §4, §5

[3] = test system: MX-1 breast cancer cells; assay: In vitro cell viability, MX-1; assay type: cell-based, human; conditions: antagonist 5 μM for 72 h, cell proliferation assay; MIA602 = 1
Method: as §1, §2, §3, §4, §5

[4] = test system: PC3 prostatic cancer cells; assay: In vitro cell viability, PC3; assay type: cell-based, human; conditions: antagonist 5 μM for 72 h, cell proliferation assay; MIA602 = 1
Method: as §1, §2, §3
(§6) Inhibitory effects of selected AVR compounds in comparison to that of MIA602 are presented as inhibitory potency (e.g., percentage of inhibition). […] The cell lines tested including lung cancer HCC827 (FIG. 2A), pancreatic cancer CFPAC-1 (FIG. 2B), stomach cancer N87 (FIG. 2C), colon cancer HT-29 (FIG. 2D), breast cancers MX-1 and HCC1806 (FIGS. 2 E, F). […]

[5] = molecular target: T1, membrane GHRH-receptors on human anterior pituitary cells (Homo sapiens, UniProt Q02643); assay: Receptor binding, displacement of 125I-[His1,Nle27]-hGH-RH(1-32)NH2 on human pituitary membranes
T1 construct: Human pituitary was purchased from the National Hormone and Peptide Program; tissue National Hormone and Peptide Program; host or cells: human pituitary (membrane fractions)
T1 sequence (Q02643 23-423): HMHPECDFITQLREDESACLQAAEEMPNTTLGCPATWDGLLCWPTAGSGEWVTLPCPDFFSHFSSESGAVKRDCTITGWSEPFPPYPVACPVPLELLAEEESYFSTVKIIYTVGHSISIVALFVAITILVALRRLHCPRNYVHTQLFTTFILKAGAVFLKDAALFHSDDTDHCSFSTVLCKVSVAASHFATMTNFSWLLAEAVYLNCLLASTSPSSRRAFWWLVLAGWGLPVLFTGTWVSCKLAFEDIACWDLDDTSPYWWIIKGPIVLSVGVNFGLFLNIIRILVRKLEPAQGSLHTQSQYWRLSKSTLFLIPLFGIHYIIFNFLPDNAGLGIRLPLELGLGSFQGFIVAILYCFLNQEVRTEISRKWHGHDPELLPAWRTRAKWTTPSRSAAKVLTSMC
Method: Receptor binding affinities in vitro. Preparation of human pituitary membrane fractions and receptor binding of analogs of GH-RH were performed (Halmos G, Rekasi Z, Szoke B, Schally A V. (1993) Receptor 3:87-97). Human pituitary was purchased from the National Hormone and Peptide Program. […] Relative affinities compared to hGH-RH(1-29)NH2 were calculated as the ratio of IC50 (dose causing 50% inhibition of specific binding to receptors) of the tested peptides to the IC50 of hGH-RH(1-29)NH2. The values were calculated from technical duplicate tubes.
Nineteen new AVR analogs of GHRH were tested in the receptor binding assay. Table 6 presents the IC50 values of GHRH antagonists to membrane GHRH-receptors binding on human anterior pituitary cells.

[6] = test system: KATOIII stomach cancer cells; assay: In vitro cell viability, KATOIII; assay type: cell-based, human; conditions: antagonist 5 μM for 72 h, cell proliferation assay; MIA602 = 1
Method: as §1, §2, §3, §4

[7] = test system: PANC-1 pancreatic cancer cells; assay: In vitro cell viability, PANC-1; assay type: cell-based, human; conditions: antagonist 5 μM for 72 h, cell proliferation assay; MIA602 = 1
Method: as §1, §2, §3, §4

[8] = test system: J82 urothelial cancer cells; assay: In vitro cell viability, J82; assay type: cell-based, human; conditions: antagonist 5 μM for 72 h, cell proliferation assay; MIA602 = 1
Method: as §1, §2, §3, §4

[9] = test system: HCC827 lung cancer cells; assay: In vitro cell viability, HCC827; assay type: cell-based, human; conditions: antagonist 5 μM for 72 h, cell proliferation assay; MIA602 = 1
Method: as §1, §2, §3, §4, §5

[10] = test system: NCI-N87 stomach cancer cells; assay: In vitro cell viability (CellTiter 96), N87; assay type: cell-based, human; conditions: antagonist 5 μM for 72 h, cell proliferation assay; MIA602 = 1
Method: as §1, §2, §3, §4, §5

[11] = test system: RT4 urothelial cancer cells; assay: In vitro cell viability, RT4; assay type: cell-based, human; conditions: antagonist 5 μM for 72 h, cell proliferation assay; MIA602 = 1
Method: as §1, §2, §3, §6

| SMILES | relative inhibitory potency in comparison to MIA-602, Pancreatic CFPAC-1 [1] | relative inhibitory potency in comparison to MIA-602, Breast IICC1806 [2] | relative inhibitory potency in comparison to MIA-602, Breast MX-1 [3] | relative inhibitory potency in comparison to MIA-602, Prostatic PC3 [4] | IC50 [5] [nM] | relative inhibitory potency in comparison to MIA-602, Stomach KATOIII [6] | relative inhibitory potency in comparison to MIA-602, Pancreatic Panc-1 [7] | relative inhibitory potency in comparison to MIA-602, Urothelial J82 [8] | relative inhibitory potency in comparison to MIA-602, Lung IICC827 [9] | relative inhibitory potency in comparison to MIA-602, Stomach N87 [10] | IC50 ([5]; membrane receptors on human anterior pituitary cells, mean of two to three determinations, read-out: IC50) [nM] | relative inhibitory potency in comparison to MIA-602, Urothelial RT4 [11] |
| --- | --- | --- | --- | --- | --- | --- | --- | --- | --- | --- | --- | --- |
| CCCC[C@H](NC(=O)[C@@H](NC(=O)[C@H](CC(=O)O)NC(=O)[C@H](CCC(N)=O)NC(=O)[C@H](CC(C)C)NC(=O)[C@H](CC(C)C)NC(=O)[C@H](CCCCN)NC(=O)[C@H](CCCNC(=N)N)NC(=O)[C@H](C)NC(=O)[C@H](CO)NC(=O)[C@H](CC(C)C)NC(=O)[C@H](CCC(N)=O)NC(=O)[C@H](CC)NC(=O)[C@H](CC(C)C)NC(=O)[C@@H](NC(=O)[C@H](CCCCN)NC(=O)[C@H](CCCNC(=N)N)NC(=O)[C@H](Cc1ccc(O)cc1)NC(=O)[C@H](CCCNC(=N)N)NC(=O)[C@H](C)NC(=O)[C@@H](NC(=O)[C@H](Cc1ccc(Cl)cc1)NC(=O)[C@@H](NC(=O)[C@H](C)NC(=O)[C@H](CC(=O)O)NC(=O)[C@@H](CCCNC(=N)N)NC(=O)[C@H](Cc1ccc(O)cc1)NC(=O)CCCCCCCCCCCNC(=O)Cc1ccccc1)[C@@H](C)CC)[C@@H](C)O)C(C)C)[C@@H](C)CC)C(=O)N[C@H](CCCNC(=N)N)C(=O)N[C@@H](CCCCNC(=N)N)C(N)=O [AVR-107, PhAC-Ada-Tyr-DArg-Asp-Ala-Ile-Cpa-Thr-Ala-Arg-Tyr-Arg-Lys-Val-Leu-Abu-Gln-Leu-Ser-Ala-Arg-Lys-Leu-Leu-Gln-Asp-Ile-Nle-DArg-Har-NH2] ({PhAc-12Ado}-Y[dR]DAI[Phe(4-Cl)]TARYRKVL[Abu]QLSARKLLQDI[Nle][dR][hArg]-NH2) | 1.080 | 0.950 | 1.010 | 0.800 | 0.61 | 1.295 | 1.160 | – | – | – | – | – |
| CCCC[C@H](NC(=O)[C@@H](NC(=O)[C@H](CC(=O)O)NC(=O)[C@H](CCC(N)=O)NC(=O)[C@H](CC(C)C)NC(=O)[C@H](CC(C)C)NC(=O)[C@H](CCCN)NC(=O)[C@H](Cc1c[nH]cn1)NC(=O)[C@H](C)NC(=O)[C@H](CO)NC(=O)[C@H](CC(C)C)NC(=O)[C@H](CCC(N)=O)NC(=O)[C@H](CC)NC(=O)[C@H](CC(C)C)NC(=O)[C@@H](NC(=O)[C@H](CCCCN)NC(=O)[C@H](CCCNC(=N)N)NC(=O)[C@H](Cc1c(F)c(F)c(F)c(F)c1F)NC(=O)[C@H](CCCNC(=N)N)NC(=O)[C@H](C)NC(=O)[C@@H](NC(=O)[C@H](Cc1ccc(Cl)cc1)NC(=O)[C@@H](NC(=O)[C@H](C)NC(=O)[C@H](CC(=O)O)NC(=O)[C@@H](CCCNC(=N)N)NC(=O)[C@H](Cc1ccc(O)cc1)NC(=O)CCCCCCCCCCCNC(=O)Cc1ccccc1)[C@@H](C)CC)[C@@H](C)O)C(C)C)[C@@H](C)CC)C(=O)N[C@H](CCCNC(=N)N)C(=O)N[C@@H](CCCCNC(=N)N)C(N)=O [AVR-116, PhAC-Ada-Tyr-DArg-Asp-Ala-Ile-Cpa-Thr-Ala-Arg-5FPhe-Arg-Lys-Val-Leu-Abu-Gln-Leu-Ser-Ala-His-Orn-Leu-Leu-Gln-Asp-Ile-Nle-DArg-Har-NH2] ({PhAc-12Ado}-Y[dR]DAI[Phe(4-Cl)]TAR[Phe(F5)]RKVL[Abu]QLSAH[Orn]LLQDI[Nle][dR][hArg]-NH2) | 1.445 | – | – | – | 0.5 | 1.202 | 1.208 | 3.034 | 2.470 | 2.484 | – | – |
| CCCC[C@H](NC(=O)[C@@H](NC(=O)[C@H](CC(=O)O)NC(=O)[C@H](CCC(N)=O)NC(=O)[C@H](CC(C)C)NC(=O)[C@H](CC(C)C)NC(=O)[C@H](CCCN)NC(=O)[C@H](Cc1c[nH]cn1)NC(=O)[C@H](C)NC(=O)[C@H](CO)NC(=O)[C@H](CC(C)C)NC(=O)[C@H](CCC(N)=O)NC(=O)[C@H](CC)NC(=O)[C@H](CC(C)C)NC(=O)[C@@H](NC(=O)[C@H](CCCCN)NC(=O)[C@H](CCCNC(=N)N)NC(=O)[C@H](Cc1ccc(OC)cc1)NC(=O)[C@H](CCCNC(=N)N)NC(=O)[C@H](C)NC(=O)[C@@H](NC(=O)[C@H](Cc1ccc(Cl)cc1)NC(=O)[C@@H](NC(=O)[C@H](C)NC(=O)[C@H](CC(=O)O)NC(=O)[C@@H](CCCNC(=N)N)NC(=O)[C@H](Cc1ccc(O)cc1)NC(=O)CCCCCCCCCCCNC(=O)[C@H](N)Cc1ccccc1)[C@@H](C)CC)[C@@H](C)O)C(C)C)[C@@H](C)CC)C(=O)N[C@H](CCCNC(=N)N)C(=O)N[C@@H](CCCCNC(=N)N)C(N)=O [AVR-120, D-Phe-Ada-Tyr-DArg-Asp-Ala-Ile-Cpa-Thr-Ala-Arg-Tyr(Me)-Arg-Lys-Val-Leu-Abu-Gln-Leu-Ser-Ala-His-Orn-Leu-Leu-Gln-Asp-Ile-Nle-DArg-Har-NH2] (H-[dF][12Ado]Y[dR]DAI[Phe(4-Cl)]TARY(Me)RKVL[Abu]QLSAH[Orn]LLQDI[Nle][dR][hArg]-NH2) | 1.617 | – | – | – | – | 1.271 | 1.306 | 4.841 | 1.423 | 2.339 | 0.48 | 1.611 |
